Results published in patent US11332438B2, “Creatine prodrugs, compositions and methods of use thereof” (Ultragenyx Pharmaceutical Inc., priority 2017, dated 2022).

Columns and labels:
[1] = Chemical stability in simulated intestinal fluid (SIF) without pancreatin; type: physicochemical; conditions: Table 2A, 50 μM prodrug
Experimental: Chemical stability of creatine prodrugs in phosphate buffered saline (PBS), simulated intestinal fluid (SIF) without pancreatin, simulated gastric fluid (SGF) without pepsin were determined by LC-UV, LC-CAD, LC-UV-CAD or LC-MS/MS as appropriate. Creatine prodrugs of the present disclosure (50 μM) were incubated at 37° C. according to described protocols and prodrug levels were compared between t=0, t=15, t=60, and t=120 mins by peak area ratio to determine the percentage remained at t=120 mins (2 h).
Protocol for PBS, SIF and SGF stability for screening:
Prodrugs (50 μM) were incubated in PBS, FaSSIF (Biorelevant) or FaSSGF (Biorelevant) at 37° C.

[2] = Prodrug cleavage in human brain homogenates (HBH): d3-Cr release and d3-Crn cyclization; type: in vitro ADME; conditions: in vitro cleavage assays (Table 3A)
Method in brief: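 d3-labelled prodrugs (20 and 200 μM final) incubated with FAAH-preserving human brain homogenate (~3-4 mg) or rFAAH plus 1 mM NADPH; controls without enzyme, heat-inactivated enzyme, or 1 μM FAAH inhibitor […]. LC-MS/MS of d3-Cr and d3-Crn at 3 h, each expressed as percent of 200 μM input, net of control for d3-Cr.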

[3] = target: T1, creatine transporter (Rattus norvegicus, UniProt P28570); experiment: Co-administration with creatine transporter blocker beta-guanidinopropionic acid (GPA), d3-Cr in WT rat brain; type: in vivo
T1 construct: from tissue; host or cells: WT rat, in vivo (brain / blood-brain barrier)
T1 sequence (P28570 1-635): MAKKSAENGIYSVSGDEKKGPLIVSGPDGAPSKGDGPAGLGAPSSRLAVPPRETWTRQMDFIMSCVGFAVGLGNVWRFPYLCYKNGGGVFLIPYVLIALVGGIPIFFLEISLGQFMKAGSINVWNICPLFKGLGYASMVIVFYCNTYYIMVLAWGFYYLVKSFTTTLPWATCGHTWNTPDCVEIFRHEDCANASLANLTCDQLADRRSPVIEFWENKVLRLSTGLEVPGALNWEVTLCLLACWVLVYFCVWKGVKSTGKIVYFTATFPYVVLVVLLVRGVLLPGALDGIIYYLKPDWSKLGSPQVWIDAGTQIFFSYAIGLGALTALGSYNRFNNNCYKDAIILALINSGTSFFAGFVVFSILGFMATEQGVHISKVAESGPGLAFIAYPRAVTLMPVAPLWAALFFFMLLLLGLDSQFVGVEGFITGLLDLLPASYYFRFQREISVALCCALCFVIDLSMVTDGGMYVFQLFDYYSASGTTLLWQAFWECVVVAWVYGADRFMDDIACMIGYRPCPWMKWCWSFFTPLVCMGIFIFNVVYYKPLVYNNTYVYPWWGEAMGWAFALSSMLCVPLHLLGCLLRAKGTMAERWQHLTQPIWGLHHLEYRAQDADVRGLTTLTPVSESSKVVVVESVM

Chemical Stability SIF, no enzyme % T0 at 2 hours at 37 °C. [1]: 17% | d3-Crn (creatinine) cyclization in vitro (in words) [2]: predominantly creatinine cyclization | d3-Crn (creatinine) cyclization in vitro (in words) ([2]; listed as Compound 8): predominantly cyclized into creatinine | levels of d3-Cr in WT rat brains with co-administration of GPA compared to dosing alone [3]: did not change
Structure (SMILES): Cl.[2H]C([2H])([2H])N(CC(=O)OCC)C(=N)NC(=O)CCCCCCCCCC [Compound 8]
